Literature values as cited in patent publication US20030176421A1, “PROKINETIC AGENTS FOR TREATING GASTRIC HYPOMOTILITY AND RELATED DISORDERS” (priority 1999, published 2003).
No end group written: not given here.

Columns and labels:
[1] = test system: guinea-pig gastric muscle; conditions: without altering membrane potential significantly
[2] = test system: canine colonic smooth muscle; conditions: in the presence of forskolin; concentration dependent
[3] = test system: sensitized guinea-pig colon
[4] = test system: guinea pig ileum longitudinal muscle; conditions: potentiation at lower doses, inhibition at higher concentrations for theophylline; entire concentration range for the others
[5] = test system: cat lower oesophageal sphincter; conditions: for cAMP and cGMP levels after exposure: cat LOS; for relaxation of circular smooth muscle (LOS): cat
[6] = test system: human lower oesophageal sphincter
[7] = test system: isolated canine internal anal sphincter

**Q.** Which “effect on slow waves” value [1] does the source give for CC(C)Cn1c(=O)n(C)c(=O)c2[nH]cnc21 [IBMX, 3-isobutyl-1-methylxanthine] here?
**A.** markedly reduce the frequency of slow waves

**Q.** What about the “relaxation of muscle strips” value (pig gastric fundus) of the same compound?
**A.** induce concentration-dependent relaxations

**Q.** What about the “potency order for decrease in carbachol-induced contractile activity” value (“potency order for decrease” below) [2] of the same compound?
**A.** rolipram>Ro 20-1724>isobutyl methylxanthine>SB 94120>siguazodan>zaprinast

**Q.** With O=S(=O)(Nc1cccc(OCc2ccc3ccccc3n2)c1)C(F)(F)F [ritolukast] as the compound, how does the “slower developing late contraction after antigen” value [3] read?
**A.** reduced

**Q.** Which “effect on contractile response to transmural cholinergic nerve stimulation” value (shortened to “effect on contractile response”) [4] does the source give for COc1cc(C(=O)OCCCN2CCCN(CCCOC(=O)c3cc(OC)c(OC)c(OC)c3)CC2)cc(OC)c1OC [dilazep] here?
**A.** depression of the contractile responses

**Q.** With CCCCOc1cc(CC2CNC(=O)N2)ccc1OC (centres unmarked) [Ro 20-1724] as the compound, how does the “potency order for decrease” value [2] read?
**A.** rolipram>Ro 20-1724>isobutyl methylxanthine>SB 94120>siguazodan>zaprinast

**Q.** With [N]=O [NO, nitric oxide] as the compound, how does the “increase in cGMP content” value (pig gastric fundus) read?
**A.** ~40 fold

**Q.** Which “cAMP and cGMP levels after exposure” value [5] does the source give for helospectin here?
**A.** both cAMP and cGMP levels were increased

**Q.** Which “relaxation of circular smooth muscle (LOS)” value (“relaxation … (LOS)” below) [6] does the source give for “vasoactive intestinal peptide (HSDAVFTDNYTRLRKQMAVKKYLNSILN; ends and bridges not checked; UniProt P01282 125-152, looked up) [VIP]” here?
**A.** induced concentration-dependent relaxations

**Q.** What about the “relaxation … (LOS)” value [5] of the same compound?
**A.** induced concentration-dependent relaxations

**Q.** What about the “cAMP and cGMP levels after exposure” value [5] of the same compound?
**A.** increase in cAMP levels only

**Q.** For OCCN(CCO)c1nc(N2CCCCC2)c2nc(N(CCO)CCO)nc(N3CCCCC3)c2n1 [dipyridamole], which “effect on contractile response” value [4] is on record?
**A.** depression of the contractile responses

**Q.** Which “initial rapid response of antigen-induced contraction” value [3] does the source give for COc1ccc(CN(CCN(C)C)c2ccccn2)cc1 [mepyramine] here?
**A.** blocked

**Q.** With COc1ccc(C2CNC(=O)C2)cc1OC1CCCC1 (centres unmarked) [rolipram] as the compound, how does the “effect on slow waves” value [1] read?
**A.** markedly reduce the frequency of slow waves

**Q.** And the “potency order for decrease” value [2]?
**A.** rolipram>Ro 20-1724>isobutyl methylxanthine>SB 94120>siguazodan>zaprinast

**Q.** For Cn1c(=O)c2[nH]cnc2n(C)c1=O [theophylline], which “effect on slow waves” value [1] is on record?
**A.** markedly reduce the frequency of slow waves

**Q.** And the “effect on contractile response” value [4]?
**A.** biphasic effect on cholinergic transmission

**Q.** With CN/C(=N\c1ccc(C2=NNC(=O)CC2C)cc1)NC#N (centres unmarked) [siguazodan] as the compound, how does the “potency order for decrease” value [2] read?
**A.** rolipram>Ro 20-1724>isobutyl methylxanthine>SB 94120>siguazodan>zaprinast

**Q.** Which “relaxation … (LOS)” value [6] does the source give for “pituitary adenylate cyclase activating peptide [PACAP]” here?
**A.** induced concentration-dependent relaxations

**Q.** And the “relaxation … (LOS)” value [5]?
**A.** induced concentration-dependent relaxations

**Q.** And the “cAMP and cGMP levels after exposure” value [5]?
**A.** both cAMP and cGMP levels were increased

**Q.** For C=C[C@@]1(C)CC(=O)[C@]2(O)[C@@]3(C)[C@@H](O)CCC(C)(C)[C@@H]3[C@H](O)[C@H](OC(C)=O)[C@@]2(C)O1 [forskolin], which “relaxation by intrinsic inhibitory neurons and associated cGMP elevation” value [7] is on record?
**A.** blocked

**Q.** And the “relaxation of muscle strips” value (pig gastric fundus)?
**A.** induce concentration-dependent relaxations

**Q.** Which results are given for CCCOc1ccccc1-c1nc2[nH]nnc2c(=O)[nH]1 [zaprinast]?
**A.** relaxation of muscle strips (pig gastric fundus): induce concentration-dependent relaxations; effect on NANC relaxations induced by electrical stimulation at intervals (pig gastric fundus; circular, but not longitudinal muscle strips): increases the duration of the NANC relaxations; potency order for decrease in carbachol-induced contractile activity [2]: rolipram>Ro 20-1724>isobutyl methylxanthine>SB 94120>siguazodan>zaprinast
